Like-named read-outs stand apart in the source and are kept apart here. Peptide text beside a SMILES is read from it.
Assays:
[1] = Variable-temperature CD melting curves (CD-melts at 228±2 nm and 202±2 nm), individual and global two-state fits; type: physicochemical; details: for ΔGF0: CD-melt at 228±2 nm, individual two-state Gibbs-Helmholtz fit (Origin 9.0), phosphate buffer 15 mM pH 6.5 ± MeOH; for ΔGF0 / DHm (fitted value, results from OriginPro) / Tm (fitted value, results from OriginPro): 0-95 °C; for Tm / Hairpin %-fold 291K / Hairpin %-fold 310K: Table S5, individual fit; for Tm: 228±2 nm; for -TΔSF0 / ΔCpF0 / ΔHF0 / ΔHm: as E16; for VT-CD %-fold: folded fraction (χF) at 25 °C from CD-melts, (R) regular / (B) bulged fold; for VT-CD %-fold / VT-CD Tm (°C): phosphate buffer 15 mM pH 6.5, up to 20% MeOH; for VT-CD Tm (°C): melting temperature from CD-melts; for DHm, fitted value from OriginPro / Tm, fitted value from OriginPro: xlsx sheet of the peptide, individual fit of CD-melt; for DHm (fitted value, results from OriginPro) / Tm (fitted value, results from OriginPro): two-state fit of the CD melt θ - θcoil(95) vs T, l 0.1 cm, peptide c 3.2e-5 to 5e-5 M
Protocol: Recently, our laboratory brought forward a novel synthetic technology for the synthesis of acyclic β-hairpins with long loops. […] To compare hairpins’ stability, both regular (R) and bulged (B) scaffolds were crafted around a flexible 10-residue model loop (G4K2G4) and analyzed by CD (circular dichroism) spectroscopy (Fig. 2(A), see ESI, ^† Table S5). The […] structure of these model scaffolds 1avs.2a in solution were recorded in the far-UV CD spectra. […] The CD-exciton intensity was therefore used as a global probe to determine the %-folding of ADAPTins and to obtain melting curves corresponding to the hairpin fraying mechanism upon a gradual increase of temperature (0 to 95 °C).[68] […] In addition, NMR (nuclear magnetic resonance) chemical shifts were measured to determine variations in backbone […] structures (Fig. 2(B)). Secondary chemical shift deviations (CSDs) were calculated against random coil values[69] for both ADAPTin scaffolds 1vs.2 to verify that the hairpins were folded and if any variation of conformational rigidity exist within the loops. […]
Mass Spectrometer coupled to a Vanquish™ Neo UHPLC System (Thermo Scientific™). Peptide solutions for circular dichroism (CD) were prepared within a concentration range of 15-120 µM in a phosphate buffer (15 mM, […]
measured accurately using a JASCO V-670 spectrophotometer relied on the combined molar absorptivity of Trp (ε280 = 5580 M-1 .cm-1 per Trp) and Tyr (ε280 = 1280 M-1 .cm-1 per Tyr) to determine each sample's concentration.
CD spectra were recorded using a JASCO J-810 Spectropolarimeter equipped with a temperature controller module JASCO PFD-425S. Raw CD melting curves were processed in SpectraGryph, and fitting was performed in OriginPro 9.0 (Originlab Corporation, U.S.A.). NMR samples were prepared by reconstituting freeze -dried peptides (~ 1-5 mg) in mixture of water and DMSO -d6 (90:10 v/v) using 2,2-dimethyl-2-silapentane-5-sulfonate (DSS) as internal standard for chemical shifts (0 ppm), and spectra were recorded at 291 K (18 °C) unless otherwise stated. Chemical shifts ( δ) are reported in ppm. Samples for NMR experiments were prepared in a range of 3-10 mM of peptide in solution unless otherwise noted.

PD1:PDL1 interaction = target: T1, PD1:PDL1 interaction (Homo sapiens, UniProt Q15116); assay: PD1/PDL1 immunoblocking ELISA (BPS Bioscience kit cat # 72005); type: binding; details: for LE (ligand efficiency): LE = -RTln(EC50)/HA, HA = non-hydrogen atoms omitting the strap (RWV•••VWE)
T1 construct: purchased BPS Bioscience 72005
Protocol: Original loops with Phe/Trp and their Gly-derived analogs. Experimental EC50 values from inhibitory dose–response curves. Error bars indicate the mean ± SD, (n = 3). […]
SDS -Pages, buffers, and stain were purchased from Fisher
8. Immunoblocking ELISA Assay
Peptide inhibitor stock solutions were prepared in the concentration range of approximately 1-5 mM in DMSO. […]
plate was then washed and blocked with blocking buffer for 1 h at room temperature. Inhibitor solutions (ranging from 0.01 to 100 μM) and a blank solution (DMSO/PBS buffer) were added to designated wells. To initiate the […]
inhibitor solutions. After a 2 h incubation at room temperature, the plate was washed and blocked again for 10 min. Streptavidin-HRP (diluted at 1 : 1000) was added and incubated for 1 h at room temperature with gentle shaking. The plate was washed and blocked once more for 10 min. ELISA ECL substrate was added, and the resulting chemoluminescence was immediately measured in a luminometer (FLUOstar OPTIMA, BMG Labtech).
The luminescence value of the blank was subtracted from all readings according to the manufacturer's

[2] = [PD1•PDL1] blocking EC50, Fig. 3B, cut-off bars of congeneric pairs (Phe/Trp vs Gly), n = 3
[3] = ELISA, mean of three independent experiments, read-out: EC50 Value

T1 sequence (Q15116 25-167 limits assumed): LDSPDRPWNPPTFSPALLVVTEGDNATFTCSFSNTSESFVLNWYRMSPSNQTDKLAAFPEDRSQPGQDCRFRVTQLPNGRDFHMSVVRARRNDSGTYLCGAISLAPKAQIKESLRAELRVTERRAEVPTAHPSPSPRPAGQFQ

Structure (SMILES): CSCC[C@H](NC(=O)[C@H](CC(=O)O)NC(=O)[C@H](Cc1ccccc1)NC(=O)[C@H](CCCNC(=N)N)NC(=O)[C@H](Cc1ccc(O)cc1)NC(=O)[C@H](CC(=O)O)NC(=O)[C@H](CCCNC(=N)N)NC(=O)[C@H](Cc1c[nH]c2ccccc12)NC(=O)[C@@H](NC(=O)[C@H](Cc1c[nH]c2ccccc12)NC(=O)[C@@H](N)CCCNC(=N)N)C(C)C)C(=O)NCC(=O)N[C@@H](Cc1ccccc1)C(=O)N[C@@H](CC(=O)O)C(=O)N[C@@H](Cc1c[nH]c2ccccc12)C(=O)N[C@H](C(=O)N[C@@H](Cc1c[nH]c2ccccc12)C(=O)N[C@@H](CCC(=O)O)C(=O)O)C(C)C [1c] (H-RWVWRDYRFDMGFDWVWE-OH)
- ΔGF0 [1]: 0.31 ± 0.01 kcal/mol
- Tm [1]: -2.99 oC
- Hairpin %-fold 291K [1]: 40 ± 1%
- Hairpin %-fold 310K [1]: 32 ± 1%
- -TΔSF0 [1]: 3.66 ± 0.01 kcal/mol
- ΔCpF0 [1]: -23 ± 0.4 cal.deg-1.mol-1
- ΔHF0 [1]: -3.35 ± 0.01 kcal/mol
- VT-CD %-fold [1]: 40% (R)
- VT-CD Tm (°C) [1]: <0 °C
- DHm, fitted value from OriginPro [1]: -2.72263 kcal/mol
- Tm, fitted value from OriginPro [1]: 270.158 K
- LE (ligand efficiency) (PD1:PDL1 interaction): 0.06
- EC50 (PD1:PDL1 interaction; PD1:PDL1 inhibition EC50, ELISA, PDL1-coated plate, biotin-labeled human PD-1, 2 h rt, chemiluminescence, Hill fit, mean ± SD, n = 3, SD): 12.3 ± 1.5 µM
- EC50 (PD1:PDL1 interaction; [2]): > 5 µM

Structure (SMILES): CSCC[C@H](NC(=O)[C@H](CC(=O)O)NC(=O)[C@H](Cc1ccccc1)NC(=O)[C@H](CCCNC(=N)N)NC(=O)[C@H](Cc1ccc(O)cc1)NC(=O)[C@H](CC(=O)O)NC(=O)[C@H](CCCNC(=N)N)NC(=O)[C@H](CCCNC(=N)N)NC(=O)[C@H](Cc1c[nH]c2ccccc12)NC(=O)[C@@H](NC(=O)[C@H](Cc1c[nH]c2ccccc12)NC(=O)[C@@H](N)CCCNC(=N)N)C(C)C)C(=O)NCC(=O)N[C@@H](Cc1ccccc1)C(=O)N[C@@H](CC(=O)O)C(=O)N[C@@H](Cc1ccc(O)cc1)C(=O)N[C@@H](Cc1c[nH]c2ccccc12)C(=O)N[C@H](C(=O)N[C@@H](Cc1c[nH]c2ccccc12)C(=O)N[C@@H](CCC(=O)O)C(=O)O)C(C)C [1d] (H-RWVWRRDYRFDMGFDYWVWE-OH)
- ΔGF0 [1]: 0.010 ± 0.001 kcal/mol
- Tm [1]: 34.9 oC
- Hairpin %-fold 291K [1]: 48 ± 1%
- Hairpin %-fold 310K [1]: 49 ± 1%
- -TΔSF0 [1]: -1.08 ± 0.04 kcal/mol
- ΔCpF0 [1]: -189 ± 2 cal.deg-1.mol-1
- ΔHF0 [1]: 1.09 ± 0.04 kcal/mol
- ΔHm [1]: -0.037 ± 0.07 kcal/mol
- VT-CD %-fold [1]: 49% (R)
- DHm, fitted value from OriginPro [1]: -0.0374427 kcal/mol
- Tm, fitted value from OriginPro [1]: 303.944 K
- EC50 (PD1:PDL1 interaction; [3]): 6.8 µM
- LE (ligand efficiency) (PD1:PDL1 interaction): 0.05

Structure (SMILES): CC(C)[C@H](NC(=O)CNC(=O)[C@H](CO)NC(=O)[C@H](CO)NC(=O)[C@H](CC(=O)O)NC(=O)[C@@H]1CCCN1C(=O)[C@H](CO)NC(=O)[C@H](Cc1c[nH]c2ccccc12)NC(=O)[C@@H](NC(=O)[C@H](Cc1c[nH]c2ccccc12)NC(=O)[C@@H](N)CCCNC(=N)N)C(C)C)C(=O)N[C@@H](C)C(=O)N[C@@H](Cc1ccc(O)cc1)C(=O)N[C@@H](Cc1c[nH]c2ccccc12)C(=O)N[C@H](C(=O)N[C@@H](Cc1c[nH]c2ccccc12)C(=O)N[C@@H](CCC(=O)O)C(=O)O)C(C)C [1e] (H-RWVWSPDSSGVAYWVWE-OH)
- ΔGF0 [1]: -0.90 ± 0.01 kcal/mol
- Tm [1]: 58.3 oC
- Hairpin %-fold 291K [1]: 85 ± 1%
- Hairpin %-fold 310K [1]: 74 ± 1%
- -TΔSF0 [1]: 5.60 ± 0.06 kcal/mol
- ΔCpF0 [1]: -148 ± 4 cal.deg-1.mol-1
- ΔHF0 [1]: -6.50 ± 0.06 kcal/mol
- ΔHm [1]: -11.5 ± 0.05 kcal/mol
- VT-CD %-fold [1]: 85% (R)
- VT-CD Tm (°C) [1]: 58 °C
- DHm (fitted value, results from OriginPro) [1]: -11.4534 kcal/mol
- Tm (fitted value, results from OriginPro) [1]: 331.438 K
- EC50 (PD1:PDL1 interaction; [3]): 0.27 µM
- LE (ligand efficiency) (PD1:PDL1 interaction): 0.10

Structure (SMILES): CC[C@H](C)[C@H](NC(=O)[C@H](CC(=O)O)NC(=O)[C@H](CC(C)C)NC(=O)[C@H](CC(=O)O)NC(=O)[C@H](CCCNC(=N)N)NC(=O)[C@H](Cc1c[nH]c2ccccc12)NC(=O)[C@@H](NC(=O)[C@H](Cc1c[nH]c2ccccc12)NC(=O)[C@@H](N)CCCNC(=N)N)C(C)C)C(=O)N[C@@H](C)C(=O)N[C@H](C(=O)N[C@H](C(=O)N[C@@H](CCCNC(=N)N)C(=O)N[C@@H](CC(=O)O)C(=O)N[C@@H](Cc1ccc(O)cc1)C(=O)N[C@@H](Cc1c[nH]c2ccccc12)C(=O)N[C@H](C(=O)N[C@@H](Cc1c[nH]c2ccccc12)C(=O)N[C@@H](CCC(=O)O)C(=O)O)C(C)C)[C@@H](C)O)[C@@H](C)O [1f] (H-RWVWRDLDIATTRDYWVWE-OH)
- ΔGF0 [1]: -0.49 ± 0.01 kcal/mol
- Tm [1]: 39.4 oC
- Hairpin %-fold 291K [1]: 78 ± 1%
- Hairpin %-fold 310K [1]: 53 ± 1%
- -TΔSF0 [1]: 9.96 ± 0.06 kcal/mol
- ΔCpF0 [1]: -15 ± 3 cal.deg-1.mol-1
- ΔHF0 [1]: -10.5 ± 0.06 kcal/mol
- ΔHm [1]: -10.7 ± 0.04 kcal/mol
- VT-CD %-fold [1]: 78% (R)
- VT-CD Tm (°C) [1]: 39 °C
- DHm (fitted value, results from OriginPro) [1]: -10.6792 kcal/mol
- Tm (fitted value, results from OriginPro) [1]: 312.539 K
- EC50 (PD1:PDL1 interaction; [3]): 3.36 µM
- LE (ligand efficiency) (PD1:PDL1 interaction): 0.06

Structure (SMILES): CSCC[C@H](NC(=O)[C@H](CC(=O)O)NC(=O)CNC(=O)[C@H](CCCNC(=N)N)NC(=O)[C@H](Cc1ccc(O)cc1)NC(=O)[C@H](CC(=O)O)NC(=O)[C@H](CCCNC(=N)N)NC(=O)[C@H](CCCNC(=N)N)NC(=O)[C@H](C)NC(=O)[C@@H](NC(=O)[C@H](Cc1c[nH]c2ccccc12)NC(=O)[C@@H](N)CCCNC(=N)N)C(C)C)C(=O)NCC(=O)N[C@@H](Cc1ccccc1)C(=O)N[C@@H](CC(=O)O)C(=O)N[C@@H](Cc1ccc(O)cc1)C(=O)N[C@@H](Cc1c[nH]c2ccccc12)C(=O)N[C@H](C(=O)N[C@@H](Cc1c[nH]c2ccccc12)C(=O)N[C@@H](CCC(=O)O)C(=O)O)C(C)C [2b] (H-RWVARRDYRGDMGFDYWVWE-OH)
- ΔGF0 [1]: -1.24 ± 0.01 kcal/mol
- TM (°C) ([1]; Fig. 2, CD-melts of regular vs bulged scaffolds): 59 °C
- Tm [1]: 59.1 oC
- Hairpin %-fold 291K [1]: 92 ± 1%
- Hairpin %-fold 310K [1]: 81 ± 1%
- -TΔSF0 [1]: 7.65 ± 0.03 kcal/mol
- ΔCpF0 [1]: -193 ±1 cal.deg-1.mol-1
- ΔHF0 [1]: -8.89 ± 0.03 kcal/mol
- VT-CD %-fold [1]: 92% (B)
- VT-CD Tm (°C) [1]: 59 °C
- DHm, fitted value from OriginPro [1]: -15.492 kcal/mol
- Tm, fitted value from OriginPro [1]: 332.248 K
- EC50 (PD1:PDL1 interaction; [3]): 7.05 µM
- LE (ligand efficiency) (PD1:PDL1 interaction): 0.06
- EC50 (PD1:PDL1 interaction; [2]): > 5 µM

— paper PMC11562385 (RSC Chemical Biology, 2024)
